Experimental data reported in patent publication US11434221B2, “Pyrazine-4-carbamate or -urea derivatives as herbicides” (Syngenta Participations AG, priority 2017, dated 2022).

Assays:
Format in all cases: in vivo
Set-up in all cases: key: 5=total damage to plant; 0=no damage to plant
[1] = test system: Echinochloa crus-galli (ECHCG); assay: Pre-emergence herbicidal activity, glasshouse pot test; conditions: Rate 1000 g/ha; sprayed one day after sowing; evaluated after 13 days
In short: (§1)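 Damage rating on a 0–5 scale (5 = total plant damage) at 13 days after pre-emergence spraying. Pots of standard soil were sown and held one day at 24/16 °C, 14 h light, 65% humidity before application of an acetone/water 50:50 formulation containing 0.5% Tween 20.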

[2] = test system: Alopecurus myosuroides (ALOMY); assay: as above; conditions: Rate 1000 g/ha; sprayed one day after sowing; evaluated after 13 days
In short: as §1

Lolium perenne (LOLPE) [3] = assay: as above; conditions: Rate 1000 g/ha; sprayed one day after sowing; evaluated after 13 days
In short: as §1

Avena fatua (AVEFA) [4] = assay: as above; conditions: Rate 1000 g/ha; sprayed one day after sowing; evaluated after 13 days
In short: as §1

[5] = test system: Triticum aestivium (TRZAW); assay: as above; conditions: Rate 1000 g/ha; sprayed one day after sowing; evaluated after 13 days
In short: as §1

Setaria faberi (SETFA) [6] = assay: as above; conditions: Rate 1000 g/ha; sprayed one day after sowing; evaluated after 13 days
In short: as §1

[7] = test system: Echinochloa crus-galli (ECHCG); assay: Post-emergence herbicidal activity, glasshouse pot test; conditions: Rate 1000 g/ha; sprayed after 8 days cultivation; evaluated after 13 days
In short: (§2)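 Pot-grown plants were sprayed 8 days after sowing (post-emergence) with active ingredient in acetone/water 50:50 containing 0.5% Tween 20. Glasshouse conditions were 24/16 °C, 14 h light and 65% humidity. Damage was scored 0 (none) to 5 (total) after 13 days.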

[8] = test system: Alopecurus myosuroides (ALOMY); assay: as above; conditions: Rate 1000 g/ha; sprayed after 8 days cultivation; evaluated after 13 days
In short: as §2

Lolium perenne (LOLPE) [9] = assay: as above; conditions: Rate 1000 g/ha; sprayed after 8 days cultivation; evaluated after 13 days
In short: as §2

Avena fatua (AVEFA) [10] = assay: as above; conditions: Rate 1000 g/ha; sprayed after 8 days cultivation; evaluated after 13 days
In short: as §2

[11] = test system: Triticum aestivium (TRZAW); assay: as above; conditions: Rate 1000 g/ha; sprayed after 8 days cultivation; evaluated after 13 days
In short: as §2

Setaria faberi (SETFA) [12] = assay: as above; conditions: Rate 1000 g/ha; sprayed after 8 days cultivation; evaluated after 13 days
In short: as §2

| SMILES | Control of weed species after pre-emergence application, ECHCG (damage score 0-5) [1] | Control of weed species after pre-emergence application, ALOMY (damage score 0-5) [2] | Control of weed species after pre-emergence application, LOLPE (damage score 0-5) (Lolium perenne (LOLPE) [3]) | Control of weed species after pre-emergence application, AVEFA (damage score 0-5) (Avena fatua (AVEFA) [4]) | Control of weed species after pre-emergence application, TRAZW (damage score 0-5) [5] | Control of weed species after pre-emergence application, SETFA (damage score 0-5) (Setaria faberi (SETFA) [6]) | Control of weed species after post-emergence application, ECHCG (damage score 0-5) [7] | Control of weed species after post-emergence application, ALOMY (damage score 0-5) [8] | Control of weed species after post-emergence application, LOLPE (damage score 0-5) (Lolium perenne (LOLPE) [9]) | Control of weed species after post-emergence application, AVEFA (damage score 0-5) (Avena fatua (AVEFA) [10]) | Control of weed species after post-emergence application, TRAZW (damage score 0-5) [11] | Control of weed species after post-emergence application, SETFA (damage score 0-5) (Setaria faberi (SETFA) [12]) |
| --- | --- | --- | --- | --- | --- | --- | --- | --- | --- | --- | --- | --- |
| CC(C)(C)OC(=O)N(C(=O)OC(C)(C)C)c1ncc(-c2cncc(F)c2)nc1Br [Compound H16] | 1 | 0 | 0 | 0 | 0 | 1 | 1 | 0 | 2 | 1 | 0 | 3 |
| Cc1nc(-c2cncc(F)c2)cnc1N(C(=O)OC(C)(C)C)C(=O)OC(C)(C)C [Compound H2, 2-bis(tert-butoxycarbonyl)amino-3-methyl-5-(5-fluoropyrid-3-yl)pyrazine] | 4 | 0 | 2 | 2 | 0 | 5 | 5 | 0 | 2 | 3 | 0 | 5 |
